Like-named read-outs stand apart in the source and are kept apart here.
Tests used:
[1] = test system: OR47a; set-up: method as in earlier work; settings: DoOR database value, ref DoOR, cited from earlier work
[2] = test system: OR13a; set-up: method as in earlier work; settings: DoOR database value, ref DoOR, cited from earlier work
[3] = biological target: T1, Drosophila OR49b (Drosophila melanogaster, UniProt Q9V6H2); assay: cell-based; settings: for Average response / OR49b response (VUAA1-normalized) at 1 μM / OR49b response (VUAA1-normalized) at 10 μM / OR49b response (VUAA1-normalized) at 100 μM: OR49b cell line; for Average response: mean of biological replicates
T1 construct: expressed in transfected cells
T1 sequence (Q9V6H2 1-375): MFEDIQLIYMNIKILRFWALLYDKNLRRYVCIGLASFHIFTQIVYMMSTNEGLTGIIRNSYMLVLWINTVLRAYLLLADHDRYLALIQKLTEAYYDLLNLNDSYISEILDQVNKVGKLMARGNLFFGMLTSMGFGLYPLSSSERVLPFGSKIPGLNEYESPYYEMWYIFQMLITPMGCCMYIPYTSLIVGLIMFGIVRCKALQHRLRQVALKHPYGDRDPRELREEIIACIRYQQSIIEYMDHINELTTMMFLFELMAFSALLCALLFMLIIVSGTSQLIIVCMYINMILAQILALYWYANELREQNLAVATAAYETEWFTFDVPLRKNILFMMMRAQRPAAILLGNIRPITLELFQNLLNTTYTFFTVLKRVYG
T1 sequence (Q9VNB5 1-486 partner): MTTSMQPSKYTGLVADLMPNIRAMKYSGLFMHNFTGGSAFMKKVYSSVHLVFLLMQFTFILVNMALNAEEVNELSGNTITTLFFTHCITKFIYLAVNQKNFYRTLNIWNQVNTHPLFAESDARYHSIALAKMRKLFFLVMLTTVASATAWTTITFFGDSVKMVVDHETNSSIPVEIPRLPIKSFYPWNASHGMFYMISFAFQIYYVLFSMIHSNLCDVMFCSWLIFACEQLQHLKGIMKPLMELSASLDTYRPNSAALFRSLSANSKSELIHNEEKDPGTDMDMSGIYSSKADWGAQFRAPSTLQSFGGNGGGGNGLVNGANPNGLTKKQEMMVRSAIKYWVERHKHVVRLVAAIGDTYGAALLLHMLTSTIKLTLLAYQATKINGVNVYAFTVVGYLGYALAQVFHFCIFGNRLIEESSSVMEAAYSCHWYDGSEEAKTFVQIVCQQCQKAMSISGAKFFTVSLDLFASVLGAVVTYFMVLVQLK
Method in brief: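 HEK293 lines stably expressing each Drosophila OR with GCaMP6, doxycycline-induced (1 μg/mL) 48 or 72 h. Fluorescence recorded 5 s baseline then 30 s after VOC injection at pH 7.3; ΔF=(FMAX−F0)/F0, normalized to 50 µM VUAA1 response per line, triplicate wells averaged; concentration series 0.01–100 μM.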

[4] = test system: OR10a; set-up: method as in earlier work; settings: DoOR database value, ref DoOR, cited from earlier work
[5] = test system: OR85b; set-up: method as in earlier work; settings: DoOR database value, ref DoOR, cited from earlier work
[6] = test system: OR49b; set-up: method as in earlier work; settings: DoOR database value, ref DoOR, cited from earlier work
[7] = test system: OR98a; set-up: method as in earlier work; settings: DoOR database value, ref DoOR, cited from earlier work
[8] = HEK293, VOC concentration 1 μM, read-out: OR49b response (VUAA1-normalized response)
[9] = HEK293, VOC concentration 10 μM, read-out: OR49b response (VUAA1-normalized response)
[10] = HEK293, VOC concentration 100 μM, read-out: OR49b response (VUAA1-normalized response)
[11] = ligand concentration 1 (unit not given), threshold 0.05, below shown as 0
[12] = ligand concentration 10 (unit not given), threshold 0.05, below shown as 0
[13] = ligand concentration 100 (unit not given), threshold 0.05, below shown as 0
[14] = HEK293, read-out: OR49b Average response (VUAA1-normalized)
[15] = HEK293, read-out: OR49b response (VUAA1-normalized response)

Row | SMILES | OR47a DoOR response [1] | OR13a DoOR response [2] | activation at 1 µM [3, 8] | activation at 10 µM [3, 9] | activation at 100 µM [3, 10] | Average response ([3]; odorant cc. 1 µM) | Average response ([3]; odorant cc. 10 µM) | Average response ([3]; odorant cc. 100 µM) | OR10a DoOR response [4] | DF norm AVERAGE OR49b [3] | OR85b DoOR response [5] | OR49b DoOR response [6] | OR98a DoOR response [7] | DF norm AVERAGE OR49b [3, 11] | DF norm AVERAGE OR49b [3, 12] | DF norm AVERAGE OR49b [3, 13] | further results
1 | CCCCCCCO [1-heptanol] | 0.095 | 0.28 | 0% | 0% | 6% | 0.00 | 0.00 | 0.06 |  |  |  |  |  |  |  |  | 
2 | CCCCCC(C)O (stereo not shown) [2-heptanol] |  | 0.67 | 0% | 0% | 6.51% | 0.00 | 0.00 | 0.0651 | 0.009 |  |  |  |  |  |  |  | 
3 | CCCCC(C)O (stereo not shown) [2-hexanol] |  | 0.58 | 0% | 0% | 0% | 0.00 | 0.00 | 0.0161 | 0.14 | 0 |  |  |  |  |  |  | 
4 | CCCCC(C)=O [2-hexanone] |  | 0.13 | 0% | 0% | 0% | 0.00 | 0.00 | 0.00 | 0.10 | 0 |  |  |  |  |  |  | 
5 | CC1=CCC2C(C1)C2(C)C (stereo not shown) [3-carene] | -0.002 |  | 0% | 0% | 0% | 0.00 | 0.00 | 0.00 | -0.005 | 0 | -0.008 | 0.002 | -0.009 |  |  |  | 
6 | C=C1CC/C=C(\C)CC[C@@H]2[C@@H]1CC2(C)C [(-)-trans-caryophyllene] | -0.002 | 0.0851 | 0% | 0% | 0% | 0.00 | 0.00 | 0.00 | -0.002 | 0 | 0.053 | 0.001 | -0.004 |  |  |  | 
7 | C=C(C)[C@H]1CC=C(C)CC1 [(R)-(+)-limonene] |  | 0.057 |  |  |  | 0.00 | 0.00 | 0.0168 | 0.07 | 0 | 0.034 | 0.03 | 0.085 |  |  |  | OR49b response (VUAA1-normalized response) ([3]; VOC concentration 1 μM): 0.00; OR49b response (VUAA1-normalized response) ([3]; VOC concentration 10 μM): 0.00; OR49b response (VUAA1-normalized response) ([3]; VOC concentration 100 μM): 0.00
8 | CC/C=C\CCO [E-3-hexenol] | 0.065 |  |  |  |  |  |  |  | 0.04 |  | 0.75 | 0.057 | 0.44 |  |  |  | OR49b response (VUAA1-normalized response) ([3]; VOC concentration 1 μM): 0.00; OR49b response (VUAA1-normalized response) ([3]; VOC concentration 10 μM): 0.00; OR49b response (VUAA1-normalized response) ([3]; VOC concentration 100 μM): 0.08
9 | CC/C=C\CCO [Z-3-hexenol] |  |  |  |  |  |  |  |  |  |  |  |  |  |  |  |  | OR85b DoOR response ([5]; OR85b): 0.60; OR49b DoOR response ([6]; OR49b): 0.07; OR47a DoOR response ([1]; OR47a): 0.14; OR13a DoOR response ([2]; OR13a): 0.37; OR98a DoOR response ([7]; OR98a): 0.44; OR49b response (VUAA1-normalized) at 1 μM ([3]; VOC concentration 1 μM): 0.00; OR49b response (VUAA1-normalized) at 10 μM ([3]; VOC concentration 10 μM): 0.00; OR49b response (VUAA1-normalized) at 100 μM ([3]; VOC concentration 100 μM): 0.00; OR10a DoOR response ([4]; OR10a): 0.007
10 | CC/C=C\CCOC(C)=O [Z-3-hexenyl acetate] |  |  |  |  |  |  |  |  |  |  |  |  |  |  |  |  | OR13a DoOR response ([2]; OR13a): 0.42; OR49b response (VUAA1-normalized) at 1 μM ([3]; VOC concentration 1 μM): 0.00; OR49b response (VUAA1-normalized) at 10 μM ([3]; VOC concentration 10 μM): 0.00; OR49b response (VUAA1-normalized) at 100 μM ([3]; VOC concentration 100 μM): 0.00; OR10a DoOR response ([4]; OR10a): 0.004
11 | C=C1CCC2CC1C2(C)C (stereo not drawn) [beta-pinene] | -0.021 |  | 6.58% | 5% | 0% | 0.0658 | 0.05 | 0.00 | -0.005 |  | 0.053 | 0.011 | -0.003 | 0.06581 | 0.05055 | 0 | 
12 | CCCCOC(C)=O [butyl acetate] | 0.77 | 0.31 |  |  |  |  |  |  | 0.27 |  | 0.78 | 0.035 | 0.70 |  |  |  | activation at 1 µM [3, 14]: 0%; activation at 10 µM [3, 14]: 0%; activation at 1 µM [3, 15]: 0%; activation at 10 µM [3, 15]: 0%; activation at 100 µM [3, 15]: 20%
13 | CCCCCC(=O)OCC [ethyl hexanoate] | 0.42 |  | 0% | 0% | 0% | 0.00 | 0.00 | 0.00 | -0.012 |  | 0.24 | 0.007 | 0.17 | 0 | 0 | 0 | 
14 | CCOC(=O)CC [ethyl propionate] | 0.16 | 0.034 | 0% | 0% | 0% | 0.00 | 0.00 | 0.0428 | 0.064 |  | 0.066 | 0.017 | 0.08 | 0 | 0 | 0 | 
15 | CC(=O)OCC(C)C [isobutyl acetate] | 0.58 |  | 5% | 0% | 0% | 0.05 | 0.0342 | 0.00 | 0.35 |  | 0.39 | 0.006 | 0.67 | 0.05093 | 0 | 0 | 
16 | C=C(C)[C@H]1CC=C(C)CC1 [limonene] | 0.056 |  |  |  |  | 0.00 | 0.00 | 0.028 | -0.001 |  | 0.10 | 0.016 | 0.09 | 0 | 0 | 0 | OR49b response (VUAA1-normalized response) ([3]; VOC concentration 1 μM): 0.00; OR49b response (VUAA1-normalized response) ([3]; VOC concentration 10 μM): 0.00; OR49b response (VUAA1-normalized response) ([3]; VOC concentration 100 μM): 0.00

— paper PMC10709440, “High-throughput ligand profile characterization in novel cell lines expressing seven heterologous insect olfactory receptors for the detection of volatile plant biomarkers” (Scientific Reports, 2023)
